Data: publication PMC3049263 (Bioorganic & medicinal chemistry, 2010)
Like-named read-outs stand apart in the source and are kept apart here.

How the values were obtained:
wild-type HIV-1YU2 virus = format: cell-based; settings: CD4-expressing Cf2Th-CCR5 target cells
recombinant HIV-1YU2 = format: cell-based; settings: CD4-deficient Cf2Th-CCR5 cells
gp120 = gp120 (Human immunodeficiency virus type 1 group M subtype B, UniProt P35961); assay: Isothermal titration calorimetry binding to gp120
[1] = system: D368A mutant HIV-1YU2 envelope glycoproteins; format: cell-based; settings: vestibule of the Phe 43 cavity
[2] = system: S375A mutant HIV-1YU2 envelope glycoproteins; format: cell-based; settings: base of the Phe 43 cavity

Compound	Inhibition of CD4-gp120 binding / viral infection (in words) (wild-type HIV-1YU2 virus)	Enhancement of viral infectivity (in words) (recombinant HIV-1YU2)	gp120 binding affinity (in words) (gp120; ITC)	other results
CC1(C)C2CCC1(C)C(NC(=O)C(=O)Nc1ccc(Cl)c(F)c1)C2 (stereo not shown) [Compound 18]	failed to exhibit inhibition			
CCN1CCCC1CNC(=O)C(=O)Nc1ccc(Cl)cc1 (stereo not shown) [Compound 42]	inhibited CD4-gp120 binding			
CCN1CCCC1CNC(=O)C(=O)Nc1ccc(Cl)c(F)c1 (stereo not shown) [Compound 43]		without the accompanying enhancement of viral infectivity	binding affinity comparable to 41	
C[C@@H]1CCC[C@H](C)N1CCNC(=O)C(=O)Nc1ccc(Cl)c(F)c1 [Compound 50]		ineffective at enhancing viral infectivity		Effect of D368A mutation on analogue binding (in words) [1]: negative effect; Effect of S375A mutation on inhibition of CD4-gp120 binding (in words) [2]: increases the ability of these analogues to inhibit CD4-gp120 binding
O=C(NCC1NCCc2ccccc21)C(=O)Nc1ccc(Cl)c(F)c1 (stereo not shown) [Compound 39]		decreased enhancement of viral infectivity		
O=C(NCC1CCCN(CCO)C1)C(=O)Nc1ccc(Cl)c(F)c1 (stereo not shown) [Compound 51]		ineffective at enhancing viral infectivity		
CC1(C)CC(NC(=O)C(=O)Nc2ccc(Cl)c(F)c2)CC(C)(C)C1 [Compound 17]	failed to exhibit inhibition			
CC(C)N1CCC(NC(=O)C(=O)Nc2ccc(Cl)c(F)c2)CC1 [Compound 11]			retention of binding affinity	
CC1(C)CC(NC(=O)C(=O)Nc2ccc(Cl)c(F)c2)CC(C)(C)O1 [Compound 19]			reduced binding	
CC1(C)CC(NC(=O)C(=O)Nc2ccc(Cl)c(F)c2)CC(C)(C)[N+]1(C)[O-] (stereo not shown) [Compound 20]				gp120 binding affinity (in words) (gp120): reduced binding
CC(C)N1CCCCC1CCNC(=O)C(=O)Nc1ccc(Cl)c(F)c1 (stereo not shown) [Compound 25]	improved IC50			
O=C(Nc1ccc(Cl)c(F)c1)C(=O)NC1CCNC2(CCC2)C1 (stereo not shown) [Compound 49]	maintained inhibition	activation of viral infectivity similar to 1	sub-micromolar binding affinity	Effect of D368A mutation on analogue binding (in words) [1]: negative effect; Effect of S375A mutation on inhibition of CD4-gp120 binding (in words) [2]: increases the ability of these analogues to inhibit CD4-gp120 binding
